Assay results: patent US7527935B2, “G-protein coupled receptor having eicosanoid as ligand and gene thereof” (Mitsubishi Tanabe Pharma Corporation, priority 2002, dated 2009)

Experiments:
eosinophils = test: Migration test of eosinophils; assay type: cell-based; settings: purified human eosinophils; 1.5 hours
Experimental: Blood was collected (50 ml) from healthy male adult volunteers, and from the collected peripheral blood, eosinophils were purified as follows.
After washing the eosinophils and neutrophils purified in the above sections, the cells were suspended in RPMI1640 supplemented with 0.1% BSA (not containing phenol red) which contains 3 μM Calcein-AM (Dojindo laboratories, fluorescence reagent), so that the cell count became 1×10^6 cells/ml. The suspension was incubated at 37° C. for 30 minutes. The cells were washed twice with the same culture medium, and suspended in the same medium so that the cell count became 1×10^6 cells/ml.
Using these cells, cell migration test was carried out using 2 chambers for migration test (Transwell; 3 μm pore, 24 well, 3422 [Costar]). […]
After the reaction, the chambers were removed, and to the lower chamber was added 66 μl of 10× lysis buffer (5% Triton X-100 dissolved in PBS, 10% ethanol). […] 200 μl of the cell lysate was transferred to 96 well black plate (237105, Nunc), and fluorescence intensities were measured using a fluorometer (ARVO™ SX, Wallac) with an excitation wavelength of 485 nm and a fluorescence wavelength of 535 nm.

[1] = target: T1, fusion protein of TG1019 protein and Gqα (Homo sapiens, UniProt Q8TDS5, D111G/K206E/T295A); test: [35S]GTPγS binding to membrane fraction containing TG1019-Gqα fusion protein; assay type: biochemical; settings: membrane fraction with TG1019-Gqα fusion protein; increase small compared to Giα
T1 construct: made in house; host or cells: Sf9 insect cells (baculovirus, pVL1392), membrane fraction
T1 sequence (Q8TDS5 with tags, fused parts or gaps D111G/K206E/T295A): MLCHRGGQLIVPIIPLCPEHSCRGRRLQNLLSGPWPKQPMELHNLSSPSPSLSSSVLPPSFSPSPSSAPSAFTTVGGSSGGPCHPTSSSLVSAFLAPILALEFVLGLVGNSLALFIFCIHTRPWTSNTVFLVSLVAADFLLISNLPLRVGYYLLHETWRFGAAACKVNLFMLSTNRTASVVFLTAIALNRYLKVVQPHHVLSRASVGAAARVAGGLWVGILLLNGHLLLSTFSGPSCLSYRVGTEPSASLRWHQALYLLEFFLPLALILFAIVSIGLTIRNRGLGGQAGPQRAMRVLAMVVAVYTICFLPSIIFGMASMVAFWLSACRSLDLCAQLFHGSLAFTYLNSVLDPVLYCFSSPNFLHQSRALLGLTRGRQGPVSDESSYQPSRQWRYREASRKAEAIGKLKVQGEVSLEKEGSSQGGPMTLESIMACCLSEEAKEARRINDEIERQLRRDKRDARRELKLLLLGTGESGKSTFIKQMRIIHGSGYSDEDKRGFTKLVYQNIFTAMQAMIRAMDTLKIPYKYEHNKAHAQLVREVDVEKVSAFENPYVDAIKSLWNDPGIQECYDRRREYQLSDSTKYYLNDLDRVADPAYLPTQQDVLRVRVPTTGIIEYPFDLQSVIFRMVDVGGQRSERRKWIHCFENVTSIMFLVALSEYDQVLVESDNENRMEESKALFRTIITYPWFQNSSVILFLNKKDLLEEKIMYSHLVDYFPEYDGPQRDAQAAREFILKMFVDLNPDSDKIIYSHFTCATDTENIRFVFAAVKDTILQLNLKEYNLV
Source text: (§1) As stated in Example 1, it is concluded that TG1019 protein is a G-protein coupled receptor. Therefore, using a membrane fraction containing fused protein of TG1019 and G-protein, a ligand is identified as follows, according to a method for detecting a ligand-dependent binding with GTPγS (guanosine 5′-O-(3-thiotriphosphate)) [Wenzel-Seifert, et al., Mol. Pharmacom., Vol. 58, pp. 954-966, 2000; Bahia, et al., Biochemistry, Vol. 37, pp. 11555-11562, 1998].
Sf9 cells were inoculated onto a 10 cm Petri dish coated with collagen to about 70% confluence, and added thereto were Virus solution III (100 μl) obtained above and 12 ml of a culture medium, and the mixture was cultured at 27° C. for 4 days. […]
The membrane fraction (450 μl) obtained above (2) was suspended in a reaction buffer (7.54 ml), and added thereto was GDP (10 mM, 10 μl). […] GTPγS (a binding amount to the membrane fraction) on the filter was measured by liquid scintillation counting. From the thus measured [^35S] GTPγS binding amount was subtracted a nonspecific binding amount (a binding amount measured in the presence of 10 μM GTPγS), to obtain a specific binding amount of [^35S ] […]

[2] = target: T2, fusion protein of TG1019 protein and Giα1 (351Cys→Ile) (Homo sapiens, UniProt P63096+Q8TDS5, C351I/D111G/K206E/T295A); test: [35S]GTPγS binding to membrane fraction containing TG1019-Giα1 (351Cys→Ile) fusion protein (ligand identification); assay type: biochemical; settings: membrane fraction with TG1019-Giα1 (351Cys→Ile) fusion protein
T2 construct: made in house; host or cells: Sf9 insect cells (baculovirus, pVL1392), membrane fraction
T2 sequence (Q8TDS5+P63096 fused Q8TDS5:D111G/Q8TDS5:K206E/Q8TDS5:T295A/P63096:C351I): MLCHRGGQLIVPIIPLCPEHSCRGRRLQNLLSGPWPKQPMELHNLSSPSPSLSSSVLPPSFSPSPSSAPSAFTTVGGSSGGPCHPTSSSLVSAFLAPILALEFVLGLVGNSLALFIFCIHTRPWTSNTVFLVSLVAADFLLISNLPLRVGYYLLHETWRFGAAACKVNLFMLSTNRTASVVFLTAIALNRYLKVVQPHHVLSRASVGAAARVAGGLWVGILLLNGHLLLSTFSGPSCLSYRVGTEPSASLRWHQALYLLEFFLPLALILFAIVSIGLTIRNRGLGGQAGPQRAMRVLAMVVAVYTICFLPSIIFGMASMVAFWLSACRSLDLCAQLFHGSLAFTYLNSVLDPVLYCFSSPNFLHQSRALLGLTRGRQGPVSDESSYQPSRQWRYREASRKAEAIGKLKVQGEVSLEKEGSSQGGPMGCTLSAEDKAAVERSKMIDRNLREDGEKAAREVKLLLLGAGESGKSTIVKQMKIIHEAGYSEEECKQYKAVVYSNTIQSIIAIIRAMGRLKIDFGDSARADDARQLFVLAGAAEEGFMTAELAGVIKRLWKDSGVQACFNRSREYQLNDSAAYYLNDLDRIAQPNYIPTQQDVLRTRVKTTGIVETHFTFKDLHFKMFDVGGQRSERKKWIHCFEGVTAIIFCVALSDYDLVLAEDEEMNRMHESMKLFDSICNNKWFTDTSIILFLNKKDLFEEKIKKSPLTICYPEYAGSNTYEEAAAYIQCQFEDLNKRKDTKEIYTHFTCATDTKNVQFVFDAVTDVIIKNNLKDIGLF
Source text: as §1
Sf9 cells were inoculated onto a 10 cm Petri dish coated with collagen to about 70% confluence, and added thereto were Virus solution III (100 μl) obtained above and 12 ml of a culture medium, and the mixture was cultured at 27° C. for 4 days. The obtained cells were washed with a cooled PBS (Phosphate buffered saline, pH 7.4), and suspended in 3.6 ml of a cooled solution buffer [20 mM Tris-HCl, pH 7.5, 1 mM EDTA, 0.2 mM phenylmethylsulfonyl fluoride, 10 μg/ml pepstatin, 10 μg/ml leupeptin, and 2 μg/ml aprotinin], and the cells were homogenized by means of a Teflon homogenizer. This cell homogenate was centrifuged (600×g, 10 minutes), and the resultant supernatant was further centrifuged (50,000×g, 20 minutes). The obtained sediments were suspended in 450 μl of a cooled reaction buffer [20 mM Tris-HCl, pH 7.5, 50 mM sodium chloride, 10 mM magnesium chloride] by means of a Teflon homogenizer, to prepare a membrane fraction containing a fusion protein.
The membrane fraction (450 μl) obtained above (2) was suspended in a reaction buffer (7.54 ml), and added thereto was GDP (10 mM, 10 μl). To 160 μl of this solution was added 20 μl of a test compound. After incubating the mixture at 30° C. for 10 minutes, 20 μl of [^35S] GTPγS (5 nM, 5 nCi/μl: available from Amersham Pharmacia Biotech) was added to start reaction. After incubating the mixture at 30° C. for one hour, the reaction was terminated by filtration through a glass filter (UniFilter-96GF/B, available from Packard). The filter was washed with 200 μl of a cooled reaction buffer for 3 times, and an amount of the [^35S] GTPγS (a binding amount to the membrane fraction) on the filter was measured by liquid scintillation counting. From the thus measured [^35S] GTPγS binding amount was subtracted a nonspecific binding amount (a binding amount measured in the presence of 10 μM GTPγS), to obtain a specific binding amount of [^35S ] GTPγS.

[3] = test system: PC3 human prostate cancer cells; test: Apoptosis analysis (annexin V / PI flow cytometry) in PC3 cells; assay type: cell-based; settings: 20 μl of 100 μM 5-oxo-ETE added together with DHA, 2 hours
Experimental: PC3 human prostate cancer cells, which had been cultured in RPMI1640 culture medium supplemented with 10% fetal bovine serum were dissociated by trypsin-EDTA solution (GibcoBRL), and suspended in RPMI1640 culture medium supplemented with 0.5% fetal bovine serum. The cells were plated onto a 6 cm Petri dish to 2×10^5 cells/dish, and cultured at 37° C. for 18 hours in a CO2 incubator. The supernatant was removed and 1980 μl of the same medium was added, and 20 μl of 1 mM DHA was further added thereto, and the mixture was cultured at 37° C. for 2 hours in a CO2 incubator.
In addition, as a test in the presence of 5-oxo-ETE, 1960 μl of RPMI1640 culture medium supplemented with 0.5% fetal bovine serum was added, and 20 μl of a 100 μM 5-oxo-ETE solution and 20 μl of a 1 mM DHA solution were further added thereto, and the cells were cultured in a similar manner as described above.
The adhered cells were removed by a cell scraper, transferred to a 1.5 ml tube, and centrifuged at 800×g for 5 minutes at 4° C., to collect suspended and adhered cells. […] The cells were suspended in 100 μl of a FITC-Annexin solution, and after 15 minutes of reaction under light-shielded condition at room temperature, 300 μl of Binding buffer was added thereto, and the FITC-Annexin bound to the cells and propidium iodide (PI) uptake into the cells were measured, by means of flow cytometer [Becton Dickinson].

CCCCC/C=C\C/C=C\C/C=C\C=C\C(=O)CCCC(=O)O [5-oxo-ETE, 5-oxo-6E,8Z,11Z,14Z-eicosatetraenoic acid]
migration of eosinophils (eosinophils): has an ability to make these cells migrate
specific binding amount of [35S]GTPγS [1]: increased
specific binding amount of [35S]GTPγS [2]: increased in a concentration-dependent manner
effect on DHA induction of apoptosis [3]: the induction of apoptosis was inhibited
